Measured values taken from the SangsterLogP compilation.

Assay: method code SF, from DOI: 10.1016/0045-6535(88)90210-x

| Structure (SMILES) | logP |
| --- | --- |
| CC(O)CO (stereo not drawn) | -0.99 |
| OCCCl | 0.03 |
| Cc1ccc(N)c(C)c1 | 2.13 |
| Oc1c(I)cc(I)cc1I | 4.5 |
| Cc1ccc(O)c(N)c1 | 1.11 |
| NC(=O)Nc1cccc(O)c1 | 0.36 |
| Cc1ccc(N)cc1Cl | 2.4 |
| OCC(Br)CBr (stereo not drawn) | 0.9 |
| CC(C)(C)c1cc(O)cc(C(C)(C)C)c1 | 4.64 |
| COc1cc(OC)c(Cl)cc1N | 1.45 |
| CCc1ccccc1N | 2.04 |
| Nc1ccc([N+](=O)[O-])cc1[N+](=O)[O-] | 1.9 |
| Oc1cc(Cl)c(Cl)c(Cl)c1Cl | 4.37 |
